Measured values from the NIST ThermoML archive (doi:10.1016/j.tca.2014.06.026).

Experiments:
[1] = 101 kPa, Liquid; for speed of sound: Frequency=2 MHz, Sing-around technique in a fixed-path interferometer; for viscosity: Oscillating disk viscometry; for mass density: Vibrating tube method
[2] = xn = mol fraction of the nth substance listed; details: 101 kPa, Liquid, x1 = 1; for speed of sound: Frequency=2 MHz, Sing-around technique in a fixed-path interferometer; for viscosity: Oscillating disk viscometry; for mass density: Vibrating tube method

CN1CCCC1=O [N-methylpyrrolidone]
[1]
Details | mass density [kg/m3] | speed of sound [m/s] | viscosity [mPa·s]
303.15 K | 1023.45 | 1552.8 | 1.511
308.15 K | 1019.34 | 1526.4 | 1.409
313.15 K | 1014.82 | 1501 | 1.332
318.15 K | 1010.06 | 1478 | 1.21

CN1CCCC1=O [N-methylpyrrolidone] + C1=CCCCC1
[2]
Details | mass density [kg/m3] | speed of sound [m/s] | viscosity [mPa·s]
303.15 K | 1023.45 | 1552.8 | 1.511
308.15 K | 1019.34 | 1526.4 | 1.409
313.15 K | 1014.82 | 1501 | 1.332
318.15 K | 1010.06 | 1478 | 1.21

CN1CCCC1=O [N-methylpyrrolidone] + NC1CCCCC1
[2]
Details | mass density [kg/m3] | speed of sound [m/s] | viscosity [mPa·s]
303.15 K | 1023.45 | 1552.8 | 1.511
308.15 K | 1019.34 | 1526.4 | 1.409
313.15 K | 1014.82 | 1501 | 1.332
318.15 K | 1010.06 | 1478 | 1.21

CN1CCCC1=O [N-methylpyrrolidone] + OC1CCCCC1
[2]
Details | mass density [kg/m3] | speed of sound [m/s] | viscosity [mPa·s]
303.15 K | 1023.45 | 1552.8 | 1.511
308.15 K | 1019.34 | 1526.4 | 1.409
313.15 K | 1014.82 | 1501 | 1.332
318.15 K | 1010.06 | 1478 | 1.21

OC1CCCCC1 [cyclohexanol]
[1]
Details | mass density [kg/m3] | speed of sound [m/s] | viscosity [mPa·s]
303.15 K | 941.32 | 1443.2 | 41.07
308.15 K | 937.23 | 1419.6 | 27.95
313.15 K | 933.48 | 1395.2 | 16.66
318.15 K | 928.11 | 1370.8 | 8.888

C1=CCCCC1 [cyclohexene]
[1]
Details | mass density [kg/m3] | speed of sound [m/s] | viscosity [mPa·s]
303.15 K | 801.81 | 1252.1 | 0.581
308.15 K | 797.25 | 1224.8 | 0.549
313.15 K | 792.61 | 1196.6 | 0.516
318.15 K | 788.02 | 1169.6 | 0.488

NC1CCCCC1 [cyclohexylamine]
[1]
Details | mass density [kg/m3] | speed of sound [m/s] | viscosity [mPa·s]
303.15 K | 857.71 | 1397.8 | 1.797
308.15 K | 853.14 | 1379.2 | 1.704
313.15 K | 848.61 | 1360.6 | 1.617
318.15 K | 844.07 | 1342 | 1.506
